Laboratory results taken from ChEMBL document CHEMBL1145293, “Synthesis and SAR of GlyT1 inhibitors derived from a series of N-((4-(morpholine-4-carbonyl)-1-(propylsulfonyl)piperidin-4-yl)methyl)benzamides” (Bioorg Med Chem Lett, 2006).
≈ marks a conversion by molar mass, not a printed value.

Columns and labels:
[1] = target: T1, Sodium- and chloride-dependent taurine transporter (Homo sapiens, UniProt P31641); test: Inhibition of human TauT
T1 sequence (P31641 whole entry): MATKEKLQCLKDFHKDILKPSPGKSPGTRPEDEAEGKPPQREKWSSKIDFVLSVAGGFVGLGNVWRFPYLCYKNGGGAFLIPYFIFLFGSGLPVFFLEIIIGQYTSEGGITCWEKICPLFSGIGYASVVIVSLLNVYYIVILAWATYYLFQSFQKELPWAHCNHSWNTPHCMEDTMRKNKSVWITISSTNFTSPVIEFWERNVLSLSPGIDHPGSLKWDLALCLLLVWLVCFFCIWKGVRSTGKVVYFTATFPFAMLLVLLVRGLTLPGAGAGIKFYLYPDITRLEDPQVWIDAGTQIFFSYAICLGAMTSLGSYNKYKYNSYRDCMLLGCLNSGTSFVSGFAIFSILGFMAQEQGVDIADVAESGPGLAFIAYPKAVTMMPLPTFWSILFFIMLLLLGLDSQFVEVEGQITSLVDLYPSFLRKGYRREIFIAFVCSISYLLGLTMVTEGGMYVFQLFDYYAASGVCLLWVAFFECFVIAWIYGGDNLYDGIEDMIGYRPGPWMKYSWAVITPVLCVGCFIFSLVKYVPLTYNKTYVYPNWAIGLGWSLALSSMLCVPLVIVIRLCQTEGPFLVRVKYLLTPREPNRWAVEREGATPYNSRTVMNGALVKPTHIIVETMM

[2] = target: T2, Sodium- and chloride-dependent glycine transporter 1 (Homo sapiens, UniProt P48067); test: Inhibition of human GlyT1
T2 sequence (P48067 whole entry): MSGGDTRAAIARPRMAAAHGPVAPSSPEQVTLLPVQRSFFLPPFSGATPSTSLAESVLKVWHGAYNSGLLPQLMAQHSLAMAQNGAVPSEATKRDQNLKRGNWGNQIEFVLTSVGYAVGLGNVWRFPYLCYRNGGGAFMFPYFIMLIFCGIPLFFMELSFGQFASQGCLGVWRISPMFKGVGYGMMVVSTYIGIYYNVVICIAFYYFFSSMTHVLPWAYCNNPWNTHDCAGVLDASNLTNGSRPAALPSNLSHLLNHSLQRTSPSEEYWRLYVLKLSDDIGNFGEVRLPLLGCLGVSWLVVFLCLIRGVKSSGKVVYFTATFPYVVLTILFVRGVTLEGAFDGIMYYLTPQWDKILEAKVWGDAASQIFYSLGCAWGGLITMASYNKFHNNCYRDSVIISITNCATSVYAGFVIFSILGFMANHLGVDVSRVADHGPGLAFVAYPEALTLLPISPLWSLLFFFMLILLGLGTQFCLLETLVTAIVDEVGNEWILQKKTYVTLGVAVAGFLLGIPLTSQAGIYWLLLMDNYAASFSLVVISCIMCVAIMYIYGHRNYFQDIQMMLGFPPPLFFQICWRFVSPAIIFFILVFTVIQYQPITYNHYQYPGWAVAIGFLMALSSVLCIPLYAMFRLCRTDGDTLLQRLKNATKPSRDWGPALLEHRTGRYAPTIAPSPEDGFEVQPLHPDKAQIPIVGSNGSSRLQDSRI

[3] = target: T3, Sodium- and chloride-dependent glycine transporter 2 (Homo sapiens, UniProt Q9Y345); test: Inhibition of human GlyT2
T3 sequence (Q9Y345 whole entry): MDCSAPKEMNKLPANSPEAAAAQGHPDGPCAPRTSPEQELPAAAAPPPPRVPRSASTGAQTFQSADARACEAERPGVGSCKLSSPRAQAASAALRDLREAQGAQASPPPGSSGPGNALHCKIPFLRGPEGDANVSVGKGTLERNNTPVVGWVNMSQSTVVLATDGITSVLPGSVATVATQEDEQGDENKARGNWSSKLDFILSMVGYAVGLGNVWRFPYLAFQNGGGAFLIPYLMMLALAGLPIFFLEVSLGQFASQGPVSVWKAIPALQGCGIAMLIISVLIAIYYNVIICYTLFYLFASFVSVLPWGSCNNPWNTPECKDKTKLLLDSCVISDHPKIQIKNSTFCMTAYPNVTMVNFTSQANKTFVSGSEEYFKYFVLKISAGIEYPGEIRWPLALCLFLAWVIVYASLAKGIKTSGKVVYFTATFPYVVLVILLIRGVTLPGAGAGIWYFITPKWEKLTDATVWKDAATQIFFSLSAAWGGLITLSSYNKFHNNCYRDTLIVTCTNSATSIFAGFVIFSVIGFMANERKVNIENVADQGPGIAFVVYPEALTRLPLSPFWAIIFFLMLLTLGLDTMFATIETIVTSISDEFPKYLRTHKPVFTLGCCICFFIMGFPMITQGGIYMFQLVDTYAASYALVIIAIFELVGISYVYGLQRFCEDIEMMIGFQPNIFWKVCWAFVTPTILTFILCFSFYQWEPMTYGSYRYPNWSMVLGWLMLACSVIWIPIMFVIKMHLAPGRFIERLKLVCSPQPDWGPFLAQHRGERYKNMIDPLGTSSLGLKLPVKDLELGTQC

Caco-2 [4] = test: Ratio of permeability from basolateral to apical over apical to basolateral side of Caco-2 cell expressing mouse p-glycoprotein; format: ADME, cell-based; conditions: human
Caco-2 [5] = test: Ratio of permeability from basolateral to apical over apical to basolateral side of Caco-2 cell expressing human p-glycoprotein; format: ADME, cell-based
[6] = Clearance in rat; format: ADME, organism-based; conditions: in vivo
Cytochrome P450 2D6 = Cytochrome P450 2D6 (Homo sapiens, UniProt P10635); test: Inhibition of CYP2D6; format: ADME
Cytochrome P450 2D6, sequence (P10635 whole entry): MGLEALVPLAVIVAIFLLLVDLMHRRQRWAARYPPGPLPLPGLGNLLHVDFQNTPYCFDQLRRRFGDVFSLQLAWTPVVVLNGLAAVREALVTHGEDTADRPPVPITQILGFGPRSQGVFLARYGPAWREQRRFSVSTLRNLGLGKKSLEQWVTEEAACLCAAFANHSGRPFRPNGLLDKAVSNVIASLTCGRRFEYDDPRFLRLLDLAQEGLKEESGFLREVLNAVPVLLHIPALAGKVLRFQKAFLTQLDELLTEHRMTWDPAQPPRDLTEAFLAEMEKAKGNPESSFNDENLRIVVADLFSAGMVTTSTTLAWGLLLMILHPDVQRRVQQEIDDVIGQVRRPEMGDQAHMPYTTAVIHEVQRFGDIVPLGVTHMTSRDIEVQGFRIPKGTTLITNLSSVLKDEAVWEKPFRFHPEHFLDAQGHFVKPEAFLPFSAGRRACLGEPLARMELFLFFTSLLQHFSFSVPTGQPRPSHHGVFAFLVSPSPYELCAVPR

[7] = Apparent permeability in Caco-2 cells; format: ADME, cell-based; conditions: human
[8] = Aqueous solubility of the compound; format: physicochemical
Cytochrome P450 3A4 = Cytochrome P450 3A4 (Homo sapiens, UniProt P08684); test: Inhibition of CYP3A4; format: ADME
Cytochrome P450 3A4, sequence (P08684 whole entry): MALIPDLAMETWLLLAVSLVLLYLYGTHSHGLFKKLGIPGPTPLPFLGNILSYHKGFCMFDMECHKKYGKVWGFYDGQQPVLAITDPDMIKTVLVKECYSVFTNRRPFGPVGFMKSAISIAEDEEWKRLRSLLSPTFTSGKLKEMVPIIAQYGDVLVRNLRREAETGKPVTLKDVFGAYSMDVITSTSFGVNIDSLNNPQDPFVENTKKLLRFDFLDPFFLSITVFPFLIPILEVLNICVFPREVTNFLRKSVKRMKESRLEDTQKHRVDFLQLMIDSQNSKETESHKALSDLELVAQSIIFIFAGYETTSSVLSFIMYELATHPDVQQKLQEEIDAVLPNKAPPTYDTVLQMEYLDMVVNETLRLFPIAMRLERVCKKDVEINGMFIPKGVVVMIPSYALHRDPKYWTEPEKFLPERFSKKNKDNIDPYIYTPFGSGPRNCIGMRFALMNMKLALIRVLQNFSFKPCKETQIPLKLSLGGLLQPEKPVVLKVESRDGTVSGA

[9] = Half life in rat; format: ADME, organism-based; conditions: in vivo
Cytochrome P450 2C9 = Cytochrome P450 2C9 (Homo sapiens, UniProt P11712); test: Inhibition of CYP2C9; format: ADME
Cytochrome P450 2C9, sequence (P11712 whole entry): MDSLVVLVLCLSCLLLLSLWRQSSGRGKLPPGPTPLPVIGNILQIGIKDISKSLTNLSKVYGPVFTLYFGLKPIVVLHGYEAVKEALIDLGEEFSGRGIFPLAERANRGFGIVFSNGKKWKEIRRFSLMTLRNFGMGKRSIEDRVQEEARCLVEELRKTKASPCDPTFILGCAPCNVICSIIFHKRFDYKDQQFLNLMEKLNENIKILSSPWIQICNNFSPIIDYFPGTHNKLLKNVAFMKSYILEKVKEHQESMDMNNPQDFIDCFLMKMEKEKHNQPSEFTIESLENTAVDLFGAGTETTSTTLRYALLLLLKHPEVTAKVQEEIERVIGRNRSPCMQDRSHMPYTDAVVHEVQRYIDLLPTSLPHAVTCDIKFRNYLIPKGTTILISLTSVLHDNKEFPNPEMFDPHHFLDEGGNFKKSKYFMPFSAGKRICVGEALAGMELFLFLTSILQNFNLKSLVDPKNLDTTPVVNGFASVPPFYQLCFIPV

[10] = Partition coefficient, log P of the compound; format: physicochemical; conditions: octanol/water

SMILES | IC50 [1] [µM] | IC50 [2] [µM] | IC50 [3] [µM] | Ratio (Caco-2 [4]) | Ratio (Caco-2 [5]) | clearance [6] [mL/min/kg] | Activity (Cytochrome P450 2D6) | Papp [7] [×10⁻⁶ cm/s] | solubility [8] [µg/mL] | Activity (Cytochrome P450 3A4) | half-life [9] [min] | Activity (Cytochrome P450 2C9) | logP [10]
CCCS(=O)(=O)N1CCC(CNC(=O)C2CC2)(C(=O)N2CCOCC2)CC1 | > 30 | > 5 | > 30 | 8.9 | 10.6 | 18 | Not Active | > 22 | 10000 (≈ 24.9 mM) | Not Active | 18 | Not Active | < 1.4
CCCS(=O)(=O)N1CCC(CNC(=O)c2ccccc2OC(F)(F)F)(C(=O)N2CCOCC2)CC1 | > 30 | 0.0884 | > 30 | 8.9 | 10.6 | 18 | Not Active | > 22 | 10000 (≈ 19.2 mM) | Not Active | 18 | Not Active | < 1.4
CCCS(=O)(=O)N1CCC(CNC(=O)c2ccc(Cl)cc2Cl)(C(=O)N2CCC(N(C)C)C2)CC1 (centres undefined) | > 30 | 0.544 | > 30 | – | – | – | – | – | – | – | – | – | –
CCCS(=O)(=O)N1CCC(C(=O)N2CCOCC2)([C@H](C)NC(=O)c2ccc(Cl)cc2Cl)CC1 | – | > 5 | – | – | – | – | – | – | – | – | – | – | –
CCCS(=O)(=O)N1CCC(CNC(=O)c2ccc(Cl)cc2Cl)(C(=O)N2CC(N)C2)CC1 | > 30 | 0.109 | > 30 | – | – | – | – | – | – | – | – | – | –
CCCS(=O)(=O)N1CCC(CNC(=O)c2ccc(C(F)(F)F)cc2F)(C(=O)N2CCOCC2)CC1 | > 30 | 0.0428 | > 30 | 8.9 | 10.6 | 18 | Not Active | > 22 | 10000 (≈ 19.1 mM) | Not Active | 18 | Not Active | < 1.4
CCCS(=O)(=O)N1CCC(CNC(=O)c2ccc(F)cc2C(F)(F)F)(C(=O)N2CCOCC2)CC1 | > 30 | 0.0678 | > 30 | 8.9 | 10.6 | 18 | Not Active | > 22 | 10000 (≈ 19.1 mM) | Not Active | 18 | Not Active | < 1.4
CCCS(=O)(=O)N1CCC(CNC(=O)c2ccc(Cl)cc2Cl)(C(=O)NCC2(C)COC2)CC1 | > 30 | 0.069 | > 30 | – | – | – | – | – | – | – | – | – | –
CCCS(=O)(=O)N1CCC(CNC(=O)CC)(C(=O)N2CCOCC2)CC1 | > 30 | > 5 | > 30 | 8.9 | 10.6 | 18 | Not Active | > 22 | 10000 (≈ 25.7 mM) | Not Active | 18 | Not Active | < 1.4
CCCS(=O)(=O)N1CCC(CNC(=O)c2ccc(Cl)cc2Cl)(C(=O)N(C)C)CC1 | > 30 | 0.181 | > 30 | – | – | – | – | – | – | – | – | – | –

Now from value to compound:

IC50 [1] [µM] | IC50 [2] [µM] | IC50 [3] [µM] | Ratio (Caco-2 [4]) | Ratio (Caco-2 [5]) | clearance [6] [mL/min/kg] | Activity (Cytochrome P450 2D6) | Papp [7] [×10⁻⁶ cm/s] | solubility [8] [µg/mL] | Activity (Cytochrome P450 3A4) | half-life [9] [min] | Activity (Cytochrome P450 2C9) | logP [10] | SMILES
> 30 | 0.472 | > 30 | – | – | – | – | – | – | – | – | – | – | CCCS(=O)(=O)N1CCC(CNC(=O)c2ccc(Cl)cc2Cl)(C(=O)C2CC2)CC1
> 30 | 0.264 | > 30 | 8.9 | 10.6 | 18 | Not Active | > 22 | 10000 (≈ 22.9 mM) | Not Active | 18 | Not Active | < 1.4 | CCCS(=O)(=O)N1CCC(CNC(=O)c2ccccc2)(C(=O)N2CCOCC2)CC1
> 30 | 0.517 | > 30 | – | – | – | – | – | – | – | – | – | – | CCCS(=O)(=O)N1CCC(CNC(=O)c2ccc(Cl)cc2Cl)(C(=O)NCC)CC1
> 30 | 0.131 | > 30 | 8.9 | 10.6 | 18 | Not Active | > 22 | 10000 (≈ 21.1 mM) | Not Active | 18 | Not Active | < 1.4 | CCCS(=O)(=O)N1CCC(CNC(=O)c2c(F)cccc2F)(C(=O)N2CCOCC2)CC1
– | > 5 | – | – | – | – | – | – | – | – | – | – | – | CCCS(=O)(=O)N1CCC(C(=O)N2CCOCC2)([C@@H](C)NC(=O)c2ccc(Cl)cc2Cl)CC1
> 30 | > 5 | > 30 | – | – | – | – | – | – | – | – | – | – | CCCS(=O)(=O)N1CCC(CNC(=O)c2ccc(Cl)cc2Cl)(C(=O)N2CCN(C)CC2)CC1
